Values joined by “and” are separate entries in the source; they are usually repeats but may differ in a detail not shown here. Equal entries are not always repeated. “Also recorded” adds a separate entry of the source. Where two headings read alike, the source gives them in different places.
Assays:
Daphnia magna = details: for Mean mortality (n = 20): five daphnids per well, four replicates
[1] = system: root tip meristem cells of Allium cepa; test: Allium cepa root tip microscopic examination (chromosomal aberrations); assay type: cell-based; details: 100 µg/L; for chromosomal aberrations observed in root tip meristem: light microscopy
Method: (§1) Whole-onions test specimens were grown at room temperature (in triplicate). The onions were initially grown for 2 days in tap water. Prior to growing them in tap water, the ring of the root, the primordia at the bottom of the onion bulb, was scraped with a sterile surgical blade to remove all existing root growth. After 2 days of tap water exposure, the lengths of the root fibers of each onion were measured and recorded. This was followed by exposure to the test solutions for another 2 days (tap water was used as the control). […] At the end of the exposure, the onion roots were cut 3 cm from the tip and placed in Carnoy’s fixative solution ([…] (Merck, Germany)) until further microscopic analysis.
This was followed by washing the root tips in distilled water, after which they were stained using Feulgen stain for 2–3 min. The stained root tips were then rinsed in distilled water, transferred onto clean glass microscope slides, and counter-stained with acetocarmine. […] The squashed onion root tips were thereafter imaged using a LEICA DM-750 light microscope at × 400 and × 1000 magnifications.
Microscopic evaluation of Allium cepa cells during mitosis was conducted to ascertain the impacts the L, C, and S test samples (lone and mixtures) will have on the genetic materials of the onion roots at cellular levels.

[2] = system: Salmonella typhimurium TA100; test: Ames mutagenicity test (agar plate method), strain TA100; details: for Number of revertant colonies per plate, Mean / Number of revertant colonies per plate, NR 1 / Number of revertant colonies per plate, NR 2 / Number of revertant colonies per plate, NR3 / mutagenic/cytotoxic effect (in words): TA 100; for Number of revertant colonies per plate, NR 1: plate 1; for Number of revertant colonies per plate, NR 2: plate 2; for Number of revertant colonies per plate, NR3: plate 3
From the text: The revertant bacteria are detected by their ability to grow in the absence of the amino acid required by the parent test strain. The Ames test method was employed to investigate the potential of a chemical to induce a mutagenic effect in exposed organisms. Three different Salmonella typhimurium bacteria strains ([TA98 P450], [TA100], and [TA100—P450], which simulate metabolic activation) were used in order to account for discrepancies in the way similar organisms (bacteria) may respond to test solutions.
Salmonella typhimurium bacteria were cultured on a freshly prepared nutrient broth medium (Merck, Germany), and allowed to stand overnight. Bacterial growth was confirmed by visual turbidity inspection. […] All experiments were carried out in triplicate. The mutagenicity of the PCs was further classified based on fuzzy logic four-gridded indices (Table 2).
A substance is deemed mutagenic if its mutation rate is twice or more than that of the background.
Salmonella typhimurium bacterial strains TA 98 P450, TA 100, or TA100 P450 were exposed to an equimolar concentration (10 and 100 µg/L) ternary cocktail mixtures of the L, C, and S in the Ames test.

Allium cepa = Allium cepa root length assay (phytotoxic inhibition of root growth); assay type: in vivo
Method: as §1
The test APCs and their mixtures in different combinations were investigated for their phytotoxic characteristics at 10 µg/L and 100 µg/L concentrations, using A. cepa bioassays. The root length assay relies on evaluating the root length of A. cepa as an indicator endpoint to assess the susceptibility of plants exposed to xenobiotics by evaluating physical impacts on their root growth. The ratio between the root length (mm) (RRL) after and before exposure to test solutions ( ^RLAERLBE ) was used as indices for the APCs’ phytotoxicity.

[3] = system: Salmonella typhimurium TA100 P450; test: Ames mutagenicity test (agar plate method), strain TA100 P450; assay type: cell-based; details: for Number of revertant colonies per plate, Mean / mutagenic/cytotoxic effect (in words): TA100 P450; for Number of revertant colonies per plate, NR 1 / Number of revertant colonies per plate, NR 2 / Number of revertant colonies per plate, NR3: TA 100 P450; for Number of revertant colonies per plate, NR 1: plate 1; for Number of revertant colonies per plate, NR 2: plate 2; for Number of revertant colonies per plate, NR3: plate 3
Method: (§2) Bacterial growth was confirmed by visual turbidity inspection. […] All experiments were carried out in triplicate.

[4] = system: Salmonella typhimurium TA98 P450; assay type: cell-based; details: for Number of revertant colonies per plate, NR 1: plate 1; for Number of revertant colonies per plate, NR 2: plate 2; for Number of revertant colonies per plate, NR3: plate 3
Method: as §2

Compound: Cc1cc(NS(=O)(=O)c2ccc(N)cc2)no1 [Sulfamethoxazole, sulfamethoxazole]
- Mean % mortality (Daphnia magna; 10 µg/L, 24 h): 15%
- Mean mortality (n = 20) (Daphnia magna; 10 µg/L, 24 h): 0.75 ± 0.50
- Mean % mortality (Daphnia magna; 10 µg/L, 48 h): 30%
- Mean mortality (n = 20) (Daphnia magna; 10 µg/L, 48 h): 1.50 ± 1.73
- Mean % mortality (Daphnia magna; 100 µg/L, 24 h): 50%
- Mean mortality (n = 20) (Daphnia magna; 100 µg/L, 24 h): 2.50 ± 0.58
- Mean % mortality (Daphnia magna; 100 µg/L, 48 h): 95%
- Mean mortality (n = 20) (Daphnia magna; 100 µg/L, 48 h): 4.75 ± 0.50
- chromosomal aberrations observed in root tip meristem [1]: vagrant chromosome in anaphase and alignment anaphase
- Number of revertant colonies per plate, Mean ([2]; 10 µg/L): 123
- Number of revertant colonies per plate, NR 1 ([2]; 10 µg/L): 100
- Number of revertant colonies per plate, NR 2 ([2]; 10 µg/L): 150
- Number of revertant colonies per plate, NR3 ([2]; 10 µg/L): 120
- Number of revertant colonies per plate, Mean ([2]; 100 µg/L): 117
- Number of revertant colonies per plate, NR 1 ([2]; 100 µg/L): 110
- Number of revertant colonies per plate, NR 2 ([2]; 100 µg/L): 110
- Number of revertant colonies per plate, NR3 ([2]; 100 µg/L): 130

Compound: Nc1ccn([C@@H]2CS[C@H](CO)O2)c(=O)n1 [Lamivudine, lamivudine]
- A. cepa root exposure R.L (Allium cepa; 10 µg/L): -
- A. cepa root exposure R.L (Allium cepa; 100 µg/L): +
- Mean % mortality (Daphnia magna; 10 µg/L, 24 h): 10%
- Mean mortality (n = 20) (Daphnia magna; 10 µg/L, 24 h): 0.50 ± 0.60
- Mean % mortality (Daphnia magna; 10 µg/L, 48 h): 45%
- Mean mortality (n = 20) (Daphnia magna; 10 µg/L, 48 h): 2.30 ± 1.00
- Mean % mortality (Daphnia magna; 100 µg/L, 24 h): 85%
- Mean mortality (n = 20) (Daphnia magna; 100 µg/L, 24 h): 4.30 ± 1.00
- Mean % mortality (Daphnia magna; 100 µg/L, 48 h): 100%
- Mean mortality (n = 20) (Daphnia magna; 100 µg/L, 48 h): 5.00 ± 0.00
- LD50 as log concentration (Daphnia magna; 24 h): 1.533 log conc. (ppb)
- LD50 as log concentration (Daphnia magna; 48 h): 1.091 log conc. (ppb) and 1.09 log conc. (ppb)
- Toxic unit 24 hrs (Daphnia magna; toxic unit of the constituent in the LCS mixture, 24 h): 1.12
- Toxic unit 48 hrs (Daphnia magna; toxic unit of the constituent in the LCS mixture, 48 h): 1.93
- Number of revertant colonies per plate, Mean ([3]; 10 µg/L): 233
- mutagenic/cytotoxic effect (in words) ([3]; 10 µg/L): did not exert either mutagenic or cytotoxic effects
- Number of revertant colonies per plate, NR 1 ([3]; 10 µg/L): 200
- Number of revertant colonies per plate, NR 2 ([3]; 10 µg/L): 200
- Number of revertant colonies per plate, NR3 ([3]; 10 µg/L): 300
- Number of revertant colonies per plate, Mean ([3]; 100 µg/L): 300
- Number of revertant colonies per plate, NR 1 ([3]; 100 µg/L): 210
- Number of revertant colonies per plate, NR 2 ([3]; 100 µg/L): 310
- Number of revertant colonies per plate, NR3 ([3]; 100 µg/L): 380
- A. cepa root exposure C.A (chromosomal aberration) [1]: +
- chromosomal aberrations observed in root tip meristem [1]: irregular prophase and metaphase
- Number of revertant colonies per plate, Mean ([4]; 10 µg/L): 16
- mutagenic/cytotoxic effect (in words) ([4]; 10 µg/L): did not exert either mutagenic or cytotoxic effects
- Number of revertant colonies per plate, NR 1 ([4]; 10 µg/L): 13
- Number of revertant colonies per plate, NR 2 ([4]; 10 µg/L): 23
- Number of revertant colonies per plate, NR3 ([4]; 10 µg/L): 13
- Number of revertant colonies per plate, Mean ([4]; 100 µg/L): 18
- mutagenic/cytotoxic effect (in words) ([4]; 100 µg/L): to a much lesser extent mutagenic; also recorded: some level of mutagenic activities
- Number of revertant colonies per plate, NR 1 ([4]; 100 µg/L): 20
- Number of revertant colonies per plate, NR 2 ([4]; 100 µg/L): 15
- Number of revertant colonies per plate, NR3 ([4]; 100 µg/L): 18
- Ames test (mutagenicity) TA 100 [2]: b (key: Toxic (a) x<0.5; No mutagenicity (b) x≥0.5≤1.5; Mutagenic to a lesser extent (c) x>1.5<2.0; Significantly mutagenic (d) x≥2.0)
- Number of revertant colonies per plate, Mean ([2]; 10 µg/L): 160
- mutagenic/cytotoxic effect (in words) ([2]; 10 µg/L): did not exert either mutagenic or cytotoxic effects
- Number of revertant colonies per plate, NR 1 ([2]; 10 µg/L): 190
- Number of revertant colonies per plate, NR 2 ([2]; 10 µg/L): 150
- Number of revertant colonies per plate, NR3 ([2]; 10 µg/L): 140
- Number of revertant colonies per plate, Mean ([2]; 100 µg/L): 163
- Number of revertant colonies per plate, NR 1 ([2]; 100 µg/L): 180
- Number of revertant colonies per plate, NR 2 ([2]; 100 µg/L): 150
- Number of revertant colonies per plate, NR3 ([2]; 100 µg/L): 160

Compound: O=C(O)c1cn(C2CC2)c2cc(N3CCNCC3)c(F)cc2c1=O [Ciprofloxacin, ciprofloxacin]
- Mean % mortality (Daphnia magna; 10 µg/L, 24 h): 10%
- Mean mortality (n = 20) (Daphnia magna; 10 µg/L, 24 h): 0.50 ± 0.58
- Mean % mortality (Daphnia magna; 10 µg/L, 48 h): 55%
- Mean mortality (n = 20) (Daphnia magna; 10 µg/L, 48 h): 2.75 ± 0.50
- Mean % mortality (Daphnia magna; 100 µg/L, 24 h): 50%
- Mean mortality (n = 20) (Daphnia magna; 100 µg/L, 24 h): 2.5 ± 1.73
- Mean % mortality (Daphnia magna; 100 µg/L, 48 h): 75%
- Mean mortality (n = 20) (Daphnia magna; 100 µg/L, 48 h): 3.75 ± 1.26
- mutagenic/cytotoxic effect (in words) ([3]; 10 µg/L): did not exert either mutagenic or cytotoxic effects
- mutagenic/cytotoxic effect (in words) ([3]; 100 µg/L): did not individually exert cytotoxicity
- chromosomal aberrations observed in root tip meristem [1]: uncoiling chromosome/irregular prophase
- mutagenic/cytotoxic effect (in words) ([4]; 10 µg/L): did not exert either mutagenic or cytotoxic effects
- mutagenic/cytotoxic effect (in words) ([4]; 100 µg/L): to a much lesser extent mutagenic; also recorded: did not individually exert cytotoxicity; also recorded: some level of mutagenic activities
- Number of revertant colonies per plate, Mean ([2]; 10 µg/L): 140
- Number of revertant colonies per plate, NR 1 ([2]; 10 µg/L): 140
- Number of revertant colonies per plate, NR 2 ([2]; 10 µg/L): 170
- Number of revertant colonies per plate, NR3 ([2]; 10 µg/L): 110
- Number of revertant colonies per plate, Mean ([2]; 100 µg/L): 140
- mutagenic/cytotoxic effect (in words) ([2]; 100 µg/L): did not individually exert cytotoxicity
- Number of revertant colonies per plate, NR 1 ([2]; 100 µg/L): 130
- Number of revertant colonies per plate, NR 2 ([2]; 100 µg/L): 140
- Number of revertant colonies per plate, NR3 ([2]; 100 µg/L): 150

Reference: PMC10656311, “Evaluation of the probable synergistic toxicity of selected potentiated antiretroviral and antibiotics on some aquatic biomarker organisms” (Environmental Monitoring and Assessment, 2023)
